In ChEMBL document CHEMBL1156337, “Synthesis and evaluation of novel benzothiazole derivatives based on the bithiophene structure as potential radiotracers for beta-amyloid plaques in Alzheimer's disease” (Bioorg Med Chem, 2010):
Activity calls are given as the source filed them. The calls are words filed in the database; no cut-off is given here.

Legend:
[1] = Binding affinity to amyloid beta (1 to 42) aggregates after 2 hrs by saturation binding method
[2] = Binding affinity to amyloid beta (1 to 40) aggregates after 2 hrs by saturation binding method
[3] = Displacement of [125I]TZDM from amyloid beta (1 to 42) aggregates after 2 hrs
[4] = Displacement of [125I]TZDM from amyloid beta (1 to 40) aggregates after 2 hrs
[5] = organism: Mus musculus; assay: Binding affinity to beta amyloid plaques in brain sections of TgC57 transgenic mouse transfected with APP and PS1 double mutant after 10 mins using thioflavin-S stain; assay type: tissue-based
[6] = organism: Mus musculus; assay: Binding affinity to beta amyloid plaques in brain sections of TgC57 transgenic mouse transfected with APP and PS1 double mutant after 30 mins by autoradiography; assay type: tissue-based; details: tested as the 125I-labelled form
[7] = organism: Mus musculus; assay: Binding affinity to beta amyloid plaques in brain sections of TgC57 transgenic mouse transfected with APP and PS1 double mutant after 30 mins by autoradiography in the presence of thioflavin-T; assay type: tissue-based; details: tested as the 125I-labelled form
[8] = system: Muscle tissue; assay: Biodistribution in muscle of Kunming mouse at 1 uCi, iv after 60 mins by gamma counting; assay type: ADME, organism-based; details: in vivo, 1 h
[9] = system: Muscle tissue; assay: Biodistribution in muscle of Kunming mouse at 1 uCi, iv after 120 mins by gamma counting; assay type: ADME, organism-based; details: in vivo, 2 h
[10] = system: Muscle tissue; assay: Biodistribution in muscle of Kunming mouse at 1 uCi, iv after 240 mins by gamma counting; assay type: ADME, organism-based; details: in vivo, 4 h
[11] = Partition coefficient, log D in n-octanol/0.05 M phosphate buffer at pH 7.4; assay type: physicochemical
[12] = system: Blood; assay: Biodistribution in blood of Kunming mouse at 1 uCi, iv after 30 mins by gamma counting; assay type: ADME, organism-based; details: in vivo, 0.5 h
[13] = system: Blood; assay: Biodistribution in blood of Kunming mouse at 1 uCi, iv after 2 mins by gamma counting; assay type: ADME, organism-based; details: in vivo
[14] = system: Blood; assay: Biodistribution in blood of Kunming mouse at 1 uCi, iv after 60 mins by gamma counting; assay type: ADME, organism-based; details: in vivo, 1 h
[15] = system: Blood; assay: Biodistribution in blood of Kunming mouse at 1 uCi, iv after 120 mins by gamma counting; assay type: ADME, organism-based; details: in vivo, 2 h
[16] = system: Blood; assay: Biodistribution in blood of Kunming mouse at 1 uCi, iv after 240 mins by gamma counting; assay type: ADME, organism-based; details: in vivo, 4 h
[17] = system: Brain; assay: Biodistribution in brain of Kunming mouse at 1 uCi, iv after 2 mins by gamma counting; assay type: ADME, organism-based; details: in vivo
[18] = system: Brain; assay: Biodistribution in brain of Kunming mouse at 1 uCi, iv after 30 mins by gamma counting; assay type: ADME, organism-based; details: in vivo, 0.5 h
[19] = system: Brain; assay: Biodistribution in brain of Kunming mouse at 1 uCi, iv after 60 mins by gamma counting; assay type: ADME, organism-based; details: in vivo, 1 h
[20] = system: Brain; assay: Biodistribution in brain of Kunming mouse at 1 uCi, iv after 120 mins by gamma counting; assay type: ADME, organism-based; details: in vivo, 2 h
[21] = system: Brain; assay: Biodistribution in brain of Kunming mouse at 1 uCi, iv after 240 mins by gamma counting; assay type: ADME, organism-based; details: in vivo, 4 h
[22] = system: Heart; assay: Biodistribution in heart of Kunming mouse at 1 uCi, iv after 2 mins by gamma counting; assay type: ADME, organism-based; details: in vivo
[23] = system: Heart; assay: Biodistribution in heart of Kunming mouse at 1 uCi, iv after 30 mins by gamma counting; assay type: ADME, organism-based; details: in vivo, 0.5 h
[24] = system: Heart; assay: Biodistribution in heart of Kunming mouse at 1 uCi, iv after 60 mins by gamma counting; assay type: ADME, organism-based; details: in vivo, 1 h
[25] = system: Heart; assay: Biodistribution in heart of Kunming mouse at 1 uCi, iv after 120 mins by gamma counting; assay type: ADME, organism-based; details: in vivo, 2 h
[26] = system: Heart; assay: Biodistribution in heart of Kunming mouse at 1 uCi, iv after 240 mins by gamma counting; assay type: ADME, organism-based; details: in vivo, 4 h
[27] = system: Liver; assay: Biodistribution in liver of Kunming mouse at 1 uCi, iv after 2 mins by gamma counting; assay type: ADME, organism-based; details: in vivo
[28] = system: Liver; assay: Biodistribution in liver of Kunming mouse at 1 uCi, iv after 30 mins by gamma counting; assay type: ADME, organism-based; details: in vivo, 0.5 h
[29] = system: Liver; assay: Biodistribution in liver of Kunming mouse at 1 uCi, iv after 60 mins by gamma counting; assay type: ADME, organism-based; details: in vivo, 1 h
[30] = system: Liver; assay: Biodistribution in liver of Kunming mouse at 1 uCi, iv after 120 mins by gamma counting; assay type: ADME, organism-based; details: in vivo, 2 h
[31] = system: Liver; assay: Biodistribution in liver of Kunming mouse at 1 uCi, iv after 240 mins by gamma counting; assay type: ADME, organism-based; details: in vivo, 4 h
[32] = system: Spleen; assay: Biodistribution in spleen of Kunming mouse at 1 uCi, iv after 2 mins by gamma counting; assay type: ADME, organism-based; details: in vivo
[33] = system: Spleen; assay: Biodistribution in spleen of Kunming mouse at 1 uCi, iv after 30 mins by gamma counting; assay type: ADME, organism-based; details: in vivo, 0.5 h
[34] = system: Spleen; assay: Biodistribution in spleen of Kunming mouse at 1 uCi, iv after 60 mins by gamma counting; assay type: ADME, organism-based; details: in vivo, 1 h
[35] = system: Spleen; assay: Biodistribution in spleen of Kunming mouse at 1 uCi, iv after 120 mins by gamma counting; assay type: ADME, organism-based; details: in vivo, 2 h
[36] = system: Spleen; assay: Biodistribution in spleen of Kunming mouse at 1 uCi, iv after 240 mins by gamma counting; assay type: ADME, organism-based; details: in vivo, 4 h
[37] = system: Lung; assay: Biodistribution in lung of Kunming mouse at 1 uCi, iv after 2 mins by gamma counting; assay type: ADME, organism-based; details: in vivo
[38] = system: Lung; assay: Biodistribution in lung of Kunming mouse at 1 uCi, iv after 30 mins by gamma counting; assay type: ADME, organism-based; details: in vivo, 0.5 h
[39] = system: Lung; assay: Biodistribution in lung of Kunming mouse at 1 uCi, iv after 60 mins by gamma counting; assay type: ADME, organism-based; details: in vivo, 1 h
[40] = system: Lung; assay: Biodistribution in lung of Kunming mouse at 1 uCi, iv after 120 mins by gamma counting; assay type: ADME, organism-based; details: in vivo, 2 h
[41] = system: Lung; assay: Biodistribution in lung of Kunming mouse at 1 uCi, iv after 240 mins by gamma counting; assay type: ADME, organism-based; details: in vivo, 4 h
[42] = system: Kidney; assay: Biodistribution in kidney of Kunming mouse at 1 uCi, iv after 2 mins by gamma counting; assay type: ADME, organism-based; details: in vivo
[43] = system: Kidney; assay: Biodistribution in kidney of Kunming mouse at 1 uCi, iv after 30 mins by gamma counting; assay type: ADME, organism-based; details: in vivo, 0.5 h
[44] = system: Kidney; assay: Biodistribution in kidney of Kunming mouse at 1 uCi, iv after 60 mins by gamma counting; assay type: ADME, organism-based; details: in vivo, 1 h
[45] = system: Kidney; assay: Biodistribution in kidney of Kunming mouse at 1 uCi, iv after 120 mins by gamma counting; assay type: ADME, organism-based; details: in vivo, 2 h
[46] = system: Kidney; assay: Biodistribution in kidney of Kunming mouse at 1 uCi, iv after 240 mins by gamma counting; assay type: ADME, organism-based; details: in vivo, 4 h
[47] = system: Stomach; assay: Biodistribution in stomach of Kunming mouse at 1 uCi, iv after 2 mins by gamma counting measured per organ; assay type: ADME, organism-based; details: in vivo
[48] = system: Stomach; assay: Biodistribution in stomach of Kunming mouse at 1 uCi, iv after 30 mins by gamma counting measured per organ; assay type: ADME, organism-based; details: in vivo, 0.5 h
[49] = system: Stomach; assay: Biodistribution in stomach of Kunming mouse at 1 uCi, iv after 60 mins by gamma counting measured per organ; assay type: ADME, organism-based; details: in vivo, 1 h
[50] = system: Stomach; assay: Biodistribution in stomach of Kunming mouse at 1 uCi, iv after 120 mins by gamma counting measured per organ; assay type: ADME, organism-based; details: in vivo, 2 h
[51] = system: Stomach; assay: Biodistribution in stomach of Kunming mouse at 1 uCi, iv after 240 mins by gamma counting measured per organ; assay type: ADME, organism-based; details: in vivo, 4 h
[52] = system: Muscle tissue; assay: Biodistribution in muscle of Kunming mouse at 1 uCi, iv after 2 mins by gamma counting; assay type: ADME, organism-based; details: in vivo
[53] = system: Muscle tissue; assay: Biodistribution in muscle of Kunming mouse at 1 uCi, iv after 30 mins by gamma counting; assay type: ADME, organism-based; details: in vivo, 0.5 h
[54] = Binding affinity to amyloid beta aggregates

CN(C)c1ccc(-c2nc3ccc([125I])cc3s2)cc1
Ki [1]: 0.13 nM | Ki [2]: 0.09 nM

CNc1ccc(-c2nc3ccc(O)cc3s2)cc1 [PITTSBURGH COMPOUND B UNLABELLED]
Ki [4]: 0.77 nM

Ic1ccc2nc(-c3ccc(-c4cccs4)s3)sc2c1
Activity [5]: Active | Activity [6]: Active | Activity [7]: inactive | Ki [4]: 0.31 nM | Ki [3]: 0.25 nM

[125I]c1ccc2nc(-c3ccc(-c4cccs4)s3)sc2c1
Drug uptake [8]: 1.47 % ID/g | Drug uptake [9]: 1.23 % ID/g | Drug uptake [10]: 0.87 % ID/g | logD [11]: 3.65 | Drug uptake [12]: 2.12 % ID/g | Drug uptake [13]: 9.02 % ID/g | Drug uptake [14]: 1.96 % ID/g | Drug uptake [15]: 1.76 % ID/g | Drug uptake [16]: 1.36 % ID/g | Drug uptake [17]: 3.42 % ID/g | Drug uptake [18]: 1.08 % ID/g | Drug uptake [19]: 0.53 % ID/g | Drug uptake [20]: 0.51 % ID/g | Drug uptake [21]: 0.5 % ID/g | Drug uptake [22]: 4.39 % ID/g | Drug uptake [23]: 2.49 % ID/g | Drug uptake [24]: 2.65 % ID/g | Drug uptake [25]: 1.5 % ID/g | Drug uptake [26]: 1.31 % ID/g | Drug uptake [27]: 53.64 % ID/g | Drug uptake [28]: 39.81 % ID/g | Drug uptake [29]: 29.12 % ID/g | Drug uptake [30]: 22.47 % ID/g | Drug uptake [31]: 13.82 % ID/g | Drug uptake [32]: 12.75 % ID/g | Drug uptake [33]: 6.78 % ID/g | Drug uptake [34]: 8.61 % ID/g | Drug uptake [35]: 3.5 % ID/g | Drug uptake [36]: 2.07 % ID/g | Drug uptake [37]: 17.51 % ID/g | Drug uptake [38]: 8.04 % ID/g | Drug uptake [39]: 8.01 % ID/g | Drug uptake [40]: 5.76 % ID/g | Drug uptake [41]: 3.72 % ID/g | Drug uptake [42]: 4 % ID/g | Drug uptake [43]: 7.22 % ID/g | Drug uptake [44]: 8.52 % ID/g | Drug uptake [45]: 7.33 % ID/g | Drug uptake [46]: 5.76 % ID/g | Drug uptake [47]: 0.39 %ID | Drug uptake [48]: 2.47 %ID | Drug uptake [49]: 4.05 %ID | Drug uptake [50]: 4.39 %ID | Drug uptake [51]: 3.24 %ID | Drug uptake [52]: 0.65 % ID/g | Drug uptake [53]: 1.01 % ID/g

N#CC(C#N)=Cc1ccc(-c2ccc(-c3ccc(O)cc3)s2)s1
Ki [54]: 10 nM
